Values after ≈ are worked out from the molar mass of the structure shown.
What was measured:
Format in all cases: functional
[1] = test system: Pseudomonas aeruginosa; experiment: In vitro antimicrobial activity against Pseudomonas aeruginosa AK 109
[2] = test system: Staphylococcus aureus; experiment: In vitro antimicrobial activity against methicillin resistant Staphylococcus aureus pMS520
[3] = test system: Escherichia coli; experiment: In vitro antimicrobial activity against Escherichia coli NIHJ JC2
[4] = test system: Pseudomonas aeruginosa; experiment: In vitro antimicrobial activity against ceftazidime resistant Pseudomonas aeruginosa AKR 17
[5] = test system: Staphylococcus aureus; experiment: In vitro antimicrobial activity against Staphylococcus aureus 209P NIHJ JCI
[6] = test system: Staphylococcus epidermidis; experiment: In vitro antimicrobial activity against methicillin resistant Staphylococcus epidermidis MB5181
[7] = species: Sus scrofa; experiment: Porcine renal DHP-1 susceptibility.
[8] = test system: Rattus norvegicus; experiment: Epileptogenicity at 200 ug in rat intracerebroventricular assay.

| Compound | MIC [1] [µg/mL] | MIC [2] [µg/mL] | MIC [3] [µg/mL] | MIC [4] [µg/mL] | MIC [5] [µg/mL] | MIC [6] [µg/mL] | Susceptibility [7] | Epileptogenicity [8] |
| --- | --- | --- | --- | --- | --- | --- | --- | --- |
| CNCc1ccc([C@H]2C[C@H](SC3=C(C(=O)O)N4C(=O)[C@H]([C@@H](C)O)[C@H]4[C@H]3C)CN2)o1 | 1.56 (≈ 3.7 µM) | 3.13 (≈ 7.43 µM) | 0.025 (≈ 0.0593 µM) | 12.5 (≈ 29.7 µM) | < 0.006 | 1.56 (≈ 3.7 µM) | 0.1 | – |
| CCC(N)c1ccc([C@H]2C[C@H](SC3=C(C(=O)O)N4C(=O)[C@H]([C@@H](C)O)[C@H]4[C@H]3C)CN2)cc1 (stereo partly drawn) | 3.13 (≈ 7.02 µM) | 1.56 (≈ 3.5 µM) | 0.1 (≈ 0.224 µM) | 25 (≈ 56.1 µM) | < 0.006 | 1.56 (≈ 3.5 µM) | 0.2 | 0 |
| C[C@@H](O)[C@H]1C(=O)N2C(C(=O)O)=C(S[C@@H]3CN[C@@H](c4ccc(CCN)cc4)C3)[C@H](C)[C@H]12 | 0.78 (≈ 1.81 µM) | 1.56 (≈ 3.61 µM) | 0.025 (≈ 0.0579 µM) | 6.25 (≈ 14.5 µM) | < 0.006 | 3.13 (≈ 7.25 µM) | 0.26 | 3 |
| C/C(N)=N/Cc1ccc([C@H]2C[C@H](SC3=C(C(=O)O)N4C(=O)[C@H]([C@@H](C)O)[C@H]4[C@H]3C)CN2)cc1 | 1.56 (≈ 3.4 µM) | 1.56 (≈ 3.4 µM) | 0.05 (≈ 0.109 µM) | 6.25 (≈ 13.6 µM) | < 0.006 | 0.78 (≈ 1.7 µM) | 0.25 | – |
| C[C@@H](O)[C@H]1C(=O)N2C(C(=O)O)=C(S[C@@H]3CN[C@@H](c4ccc(CN)s4)C3)[C@H](C)[C@H]12 | 0.78 (≈ 1.84 µM) | 1.56 (≈ 3.68 µM) | 0.025 (≈ 0.059 µM) | 3.13 (≈ 7.39 µM) | < 0.006 | 1.56 (≈ 3.68 µM) | 0.84 | 5 |
| C[C@@H](O)[C@H]1C(=O)N2C(C(=O)O)=C(SCCNC=N)C[C@H]12.O | 1.56 | 50 | 0.1 | 3.13 | < 0.006 | 50 | 1 | 5 |
| C[C@@H](O)[C@H]1C(=O)N2C(C(=O)O)=C(S[C@@H]3CN[C@@H](c4ccc(CSC(=N)N)cc4)C3)[C@H](C)[C@H]12 | 1.56 (≈ 3.27 µM) | 1.56 (≈ 3.27 µM) | 0.05 (≈ 0.105 µM) | 12.5 (≈ 26.2 µM) | < 0.006 | 1.56 (≈ 3.27 µM) | 0.3 | 3 |
| C[C@@H](O)[C@H]1C(=O)N2C(C(=O)O)=C(S[C@@H]3CN[C@@H](c4ccc(C(C)(C)N)cc4)C3)[C@H](C)[C@H]12 | 1.56 (≈ 3.5 µM) | 1.56 (≈ 3.5 µM) | 0.05 (≈ 0.112 µM) | 6.25 (≈ 14 µM) | < 0.006 | 1.56 (≈ 3.5 µM) | 0.37 | 0 |
| C[C@@H](O)[C@H]1C(=O)N2C(C(=O)O)=C(S[C@@H]3CN[C@@H](c4ccc(C(N)CCO)cc4)C3)[C@H](C)[C@H]12 (stereo partly drawn) | 1.56 (≈ 3.38 µM) | 3.13 (≈ 6.78 µM) | 0.05 (≈ 0.108 µM) | 12.5 (≈ 27.1 µM) | < 0.006 | 6.25 (≈ 13.5 µM) | – | 0 |
| CC(N)c1ccc([C@H]2C[C@H](SC3=C(C(=O)O)N4C(=O)[C@H]([C@@H](C)O)[C@H]4[C@H]3C)CN2)cc1 (stereo partly drawn) | 0.78 (≈ 1.81 µM) | 1.56 (≈ 3.61 µM) | 0.025 (≈ 0.0579 µM) | 3.13 (≈ 7.25 µM) | < 0.006 | 0.78 (≈ 1.81 µM) | 0.55 | 0 |
| CCNCc1ccc([C@H]2C[C@H](SC3=C(C(=O)O)N4C(=O)[C@H]([C@@H](C)O)[C@H]4[C@H]3C)CN2)cc1 | 1.56 (≈ 3.5 µM) | 1.56 (≈ 3.5 µM) | 0.025 (≈ 0.0561 µM) | 6.25 (≈ 14 µM) | < 0.006 | 1.56 (≈ 3.5 µM) | 0.44 | 0 |
| C[C@@H](O)[C@H]1C(=O)N2C(C(=O)O)=C(S[C@@H]3CN[C@@H](c4ccc(C(N)C(N)=O)cc4)C3)[C@H](C)[C@H]12 (stereo partly drawn) | 1.56 (≈ 3.39 µM) | 3.13 (≈ 6.8 µM) | 0.025 (≈ 0.0543 µM) | 6.25 (≈ 13.6 µM) | < 0.006 | 3.13 (≈ 6.8 µM) | 0.32 | 0 |
| C[C@@H](O)[C@H]1C(=O)N2C(C(=O)O)=C(S[C@@H]3CN[C@@H](c4ccc(CN=C(N)N)cc4)C3)[C@H](C)[C@H]12 | 0.78 (≈ 1.7 µM) | 1.56 (≈ 3.39 µM) | 0.012 (≈ 0.0261 µM) | 3.13 (≈ 6.81 µM) | < 0.006 | 0.78 (≈ 1.7 µM) | – | – |
| C[C@@H](O)[C@H]1C(=O)N2C(C(=O)O)=C(S[C@@H]3CN[C@@H](c4ccc([C@H](N)CC(N)=O)cc4)C3)[C@H](C)[C@H]12 | 1.56 (≈ 3.29 µM) | 1.56 (≈ 3.29 µM) | 0.025 (≈ 0.0527 µM) | 1.56 (≈ 3.29 µM) | < 0.006 | 1.56 (≈ 3.29 µM) | 0.27 | 0 |
| C=CCC(N)c1ccc([C@H]2C[C@H](SC3=C(C(=O)O)N4C(=O)[C@H]([C@@H](C)O)[C@H]4[C@H]3C)CN2)cc1 (stereo partly drawn) | 1.56 (≈ 3.41 µM) | 1.56 (≈ 3.41 µM) | 0.025 (≈ 0.0546 µM) | 12.5 (≈ 27.3 µM) | < 0.006 | 3.13 (≈ 6.84 µM) | 0.29 | 0 |
| CNCc1ccc([C@H]2C[C@H](SC3=C(C(=O)O)N4C(=O)[C@H]([C@@H](C)O)[C@H]4[C@H]3C)CN2)cc1 | 0.39 (≈ 0.904 µM) | 0.78 (≈ 1.81 µM) | 0.025 (≈ 0.0579 µM) | 1.56 (≈ 3.61 µM) | < 0.006 | 1.56 (≈ 3.61 µM) | 0.25 | 0 |
| C[C@@H](O)[C@H]1C(=O)N2C(C(=O)O)=C(S[C@@H]3CN[C@@H](c4ccc(CN)cc4)C3)[C@H](C)[C@H]12 | 0.39 (≈ 0.934 µM) | 0.78 (≈ 1.87 µM) | 0.025 (≈ 0.0599 µM) | 3.13 (≈ 7.5 µM) | < 0.006 | 1.56 (≈ 3.74 µM) | 0.29 | 5 |
| C[C@@H](O)[C@H]1C(=O)N2C(C(=O)O)=C(S[C@@H]3CN[C@@H](c4ccc([C@@H](N)CC(N)=O)cc4)C3)[C@H](C)[C@H]12 | 0.78 (≈ 1.64 µM) | 1.56 (≈ 3.29 µM) | 0.025 (≈ 0.0527 µM) | 1.56 (≈ 3.29 µM) | < 0.006 | 1.56 (≈ 3.29 µM) | 0.27 | 0 |
| CNCc1ccc([C@H]2C[C@H](SC3=C(C(=O)O)N4C(=O)[C@H]([C@@H](C)O)[C@H]4[C@H]3C)CN2)s1 | 1.56 (≈ 3.57 µM) | 1.56 (≈ 3.57 µM) | 0.025 (≈ 0.0571 µM) | 3.13 (≈ 7.15 µM) | < 0.006 | 3.13 (≈ 7.15 µM) | 0.35 | 3 |
| C[C@@H](O)[C@H]1C(=O)N2C(C(=O)O)=C(S[C@@H]3CN[C@@H](c4ccc(CNCC(N)=O)cc4)C3)[C@H](C)[C@H]12 | 1.56 (≈ 3.29 µM) | 3.13 (≈ 6.6 µM) | 0.025 (≈ 0.0527 µM) | 6.25 (≈ 13.2 µM) | < 0.006 | 1.56 (≈ 3.29 µM) | 0.31 | – |
| C[C@@H](O)[C@H]1C(=O)N2C(C(=O)O)=C(S[C@@H]3CN[C@@H](c4ccc(CN)c5ccccc45)C3)[C@H](C)[C@H]12 | 6.25 (≈ 13.4 µM) | 1.56 (≈ 3.34 µM) | 0.05 (≈ 0.107 µM) | > 25 | < 0.006 | 0.78 (≈ 1.67 µM) | 0.16 | 5 |
| C[C@@H](O)[C@H]1C(=O)N2C(C(=O)O)=C(S[C@@H]3CN[C@@H](c4ccc(C5(N)CC5)cc4)C3)[C@H](C)[C@H]12 | 3.13 (≈ 7.06 µM) | 1.56 (≈ 3.52 µM) | 0.025 (≈ 0.0564 µM) | 6.25 (≈ 14.1 µM) | < 0.006 | 1.56 (≈ 3.52 µM) | 0.32 | 0 |
| C[C@@H](O)[C@H]1C(=O)N2C(C(=O)O)=C(S[C@@H]3CN[C@@H](c4cccc(CN)c4)C3)[C@H](C)[C@H]12 | 0.78 (≈ 1.87 µM) | 1.56 (≈ 3.74 µM) | 0.1 (≈ 0.24 µM) | 6.25 (≈ 15 µM) | < 0.006 | 3.13 (≈ 7.5 µM) | 0.16 | 5 |
| C[C@@H](O)[C@H]1C(=O)N2C(C(=O)O)=C(S[C@@H]3CN[C@@H](c4ccc(CNCCO)cc4)C3)[C@H](C)[C@H]12 | 0.78 (≈ 1.69 µM) | 1.56 (≈ 3.38 µM) | 0.05 (≈ 0.108 µM) | 6.25 (≈ 13.5 µM) | < 0.006 | 1.56 (≈ 3.38 µM) | 0.31 | – |
| CN[C@H](CC(C)C)C(=O)N[C@H]1C(=O)N[C@@H](CC(N)=O)C(=O)N[C@H]2C(=O)N[C@H]3C(=O)N[C@H](C(=O)N[C@H](C(=O)O)c4cc(O)cc(O)c4-c4cc3ccc4O)[C@H](O)c3ccc(c(Cl)c3)Oc3cc2cc(c3O[C@@H]2O[C@H](CO)[C@@H](O)[C@H](O)[C@H]2O[C@H]2C[C@](C)(N)[C@H](O)[C@H](C)O2)Oc2ccc(cc2Cl)[C@H]1O [VANCOMYCIN] | > 100 | 0.78 (≈ 0.538 µM) | > 100 | > 100 | 0.39 (≈ 0.269 µM) | – | – | – |
| CCSCC(N)c1ccc([C@H]2C[C@H](SC3=C(C(=O)O)N4C(=O)[C@H]([C@@H](C)O)[C@H]4[C@H]3C)CN2)cc1 (stereo partly drawn) | 3.13 (≈ 6.37 µM) | 1.56 (≈ 3.17 µM) | 0.025 (≈ 0.0508 µM) | 12.5 (≈ 25.4 µM) | < 0.006 | 0.78 (≈ 1.59 µM) | 0.27 | – |
| CC(C)NCc1ccc([C@H]2C[C@H](SC3=C(C(=O)O)N4C(=O)[C@H]([C@@H](C)O)[C@H]4[C@H]3C)CN2)cc1 | 0.78 (≈ 1.7 µM) | 1.56 (≈ 3.39 µM) | 0.05 (≈ 0.109 µM) | 6.25 (≈ 13.6 µM) | < 0.006 | 1.56 (≈ 3.39 µM) | – | – |
